{
  "source": "patent EP0416740A2",
  "about": "“Novel compounds with renin-inhibiting activity” (Beecham Group p.l.c., priority 1989, dated 1991)",
  "note": "pIC50: −log10 of the molar value. Structures can show the parent of a compound that is named as a salt.",
  "data": [
    {"target": "T1, human renin (Homo sapiens, UniProt P00797)", "T1 construct": "from tissue; host or cells: human plasma from blood of healthy volunteers", "T1 sequence (P00797 67-406)": "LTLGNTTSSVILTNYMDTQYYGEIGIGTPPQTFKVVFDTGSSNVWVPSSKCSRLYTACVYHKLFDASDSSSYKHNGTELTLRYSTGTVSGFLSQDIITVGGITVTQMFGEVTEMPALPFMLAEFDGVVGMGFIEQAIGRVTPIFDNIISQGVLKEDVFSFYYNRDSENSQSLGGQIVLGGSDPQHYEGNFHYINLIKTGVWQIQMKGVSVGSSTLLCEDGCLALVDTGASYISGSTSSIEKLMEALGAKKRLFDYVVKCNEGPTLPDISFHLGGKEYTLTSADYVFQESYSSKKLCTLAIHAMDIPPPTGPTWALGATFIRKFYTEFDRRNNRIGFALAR", "assay": "biochemical", "settings": "not given", "procedure": "(§1) In vitro human renin inhibition\n(§2) Renin inhibitory activity was estimated as the percentage change in renin activity in human plasma in the presence and absence of compound. The source of plasma was blood taken from healthy volunteers. Renin activity was defined by the difference in angiotensin I levels between two halves of a sample, one incubated at 37^o and the other at 4^o for 2 h. Angiotensin I levels were measured using a ¹²⁵I- angiotensin I radioimmunoassay kit (NEN/Dupont, Stevenage). Results were calculated as the mean of at least two, duplicate determinations and IC₅₀ values were calculated by linear regression analysis of at least three concentrations of compound.", "values": [
      {"molecule": "CC(C)CNC(=O)C[C@H](O)[C@H](CC1CCCCC1)NC(=O)[C@H](CC(C)C)NC(=O)[C@H](Cc1ccccc1)NC(=O)CC1COc2ccc[n+]([O-])c21", "note": "(stereo partly drawn) [Example E2, 2,3-Dihydro-4-oxofuro[3,2-]pyridine-3-acetyl-Phe-Leu-ACHPA isobutylamide]", "pIC50": 7.68}
    ]},
    {"target": "T1, human renin", "assay": "biochemical", "settings": "renin activity in human plasma; angiotensin I difference between halves incubated at 37° and 4° for 2 h; linear regression of at least three concentrations; read-out: IC₅₀", "procedure": "as §1, §2", "values": [
      {"molecule": "CC(C)C[C@H](NC(=O)[C@H](Cc1ccccc1)NC(=O)CCN1C(=O)COc2cccnc21)C(=O)N[C@@H](CC1CCCCC1)[C@@H](O)CC(=O)NCCCn1ccnc1", "note": "[Example E3, 2,3-Dihydro-3-oxo-4H-pyrido[3,2-b]-1,4-oxazine-4-propanoyl-Phe-Leu-ACHPA 3-(1-imidazolyl)propylamide .0.5(CHCl₃)]", "pIC50": 7.59},
      {"molecule": "CC(C)C[C@H](NC(=O)[C@H](Cc1ccccc1)NC(=O)CCCN1Cc2ccncc2C1=O)C(=O)N[C@@H](CC1CCCCC1)[C@@H](O)CC(=O)NCCCn1ccnc1", "note": "[Example E14, 6,7-Dihydro-5H-7-oxo-pyrrolo[3,4-c]pyridine-6-butanoyl-Phe-Leu-ACHPA 3-(1-imidazolyl)propylamide.2HCl]", "pIC50": 7.85},
      {"molecule": "CC(C)C[C@H](NC(=O)[C@H](Cc1ccccc1)NC(=O)CCN1C(=O)CS(=O)(=O)c2ncccc21)C(=O)N[C@@H](CC1CCCCC1)[C@@H](O)CC(=O)NCCCn1ccnc1", "note": "[Example E11, 2,3-Dihydro-1,1,3-trioxo-4H-pyrido[2,3-b]-1,4-thiazine-4-propanoyl-Phe-Leu-ACHPA 3-(1-imidazolyl)propylamide .HCl.1.5H₂O]", "pIC50": 7.92},
      {"molecule": "CC(C)C[C@H](NC(=O)[C@H](Cc1ccccc1)NC(=O)CCN1C(=O)CSc2ncccc21)C(=O)N[C@@H](CC1CCCCC1)[C@@H](O)CC(=O)NCCCn1ccnc1", "note": "[Example E10, 2,3-Dihydro-3-oxo-4H-pyrido[2,3-b]-1,4-thiazine-4-propanoyl-Phe-Leu-ACHPA 3-(1-imidazolyl)propylamide .HCl]", "pIC50": 8.22},
      {"molecule": "CC(C)C[C@H](NC(=O)[C@H](Cc1ccccc1)NC(=O)CCN1C(=O)CSc2ccncc21)C(=O)N[C@@H](CC1CCCCC1)[C@@H](O)CC(=O)NCCCn1ccnc1", "note": "[Example E4, 2,3-Dihydro-3-oxo-4H-pyrido[4,3-b]-1,4-thiazine-4-propanoyl-Phe-Leu-ACHPA 3-(1-imidazolyl)propylamide]", "pIC50": 8.40}
    ]}
  ]
}
